The record followed here is the NIST ThermoML archive (doi:10.1016/j.jct.2007.02.009).

± gives the expanded uncertainty stated by the source.

For the data set the following is noted: Crystal; Adiabatic calorimetry.

Turning to `CN(C)C=O` [dimethylformamide], the Triple point temperature amounted to 212.86 ± 0.11 K.
